Source: patent US20110104159A1, “COMPOSITIONS AND METHODS FOR TREATING, CONTROLLING, REDUCING, AMELIORATING, OR PREVENTING ALLERGY” (priority 2006, published 2011)
“And” between values parts separate entries of the source, which are not always exact repeats. Equal entries are not always repeated.

Legend:
[1] = tested on: rabbit paracentesis model; assay: Pupillary diameter measurement, rabbit paracentesis model; type: in vivo; settings: 0.5% topical, individual eye
Procedure: (§1) Each rabbit was placed in a restraint device and tagged with the alphanumeric code. The formulations were instilled (50 μl) into the conjunctival sac of both eyes 180, 120, 90 and 30 min before the first paracentesis; then 15, 30, 90 min after the first paracentesis. To perform the first paracentesis the animals were anaesthetized by intravenous injection of 5 mg/kg Zoletil® (Virbac; 2.5 mg/kg tiletamine HCl and 2.5 mg/kg zolazepam HCl) and one drop of local anesthetic (Novesina®, Novartis) was administered to the eye. Anterior chamber paracentesis was performed with a 26 G needle attached to a tuberculin syringe; the needle was introduced into the anterior chamber through the cornea, taking care not to damage the tissues. Two hours after the first paracentesis, the animals were sacrificed with 0.4 ml Tanax® (Intervet International B.V.) and the second paracentesis was performed. About 100 μl of aqueous humor were removed at the second paracentesis. Aqueous humor was immediately split in four aliquots and stored at −80° C. until analysis. Then both eyes were enucleated and the iris-ciliary body was carefully excised, placed in polypropylene tubes, and stored at −80° C. until analysis.
The pupillary diameter of both eyes was measured with a Castroviejo caliper 180 min and 5 min before the first paracentesis and 5 min before the second paracentesis.

[2] = tested on: rabbit paracentesis model; assay: Clinical evaluation by slit lamp (clinical score), rabbit paracentesis model; type: in vivo; set-up: key to Clinical Score −180 min / Clinical Score −5 min / Clinical Score +115 min: 0: normal; 1: discrete dilatation of iris and conjunctival vessels; 2: moderate dilatation of iris and conjunctival vessels; 3: intense iridal hyperemia with flare in the anterior chamber; 4: intense iridal hyperemia with flare in the anterior chamber and presence of fibrinous exudates; settings: 0.5% topical
PGE2 = assay: Prostaglandin E2 (PGE2) measurement in aqueous humor; type: in vivo, Rabbit; settings: 0.5% topical
Procedure: as §1
For the quantitative determination of PGE2 in the aqueous humor we used the PGE2 Immunoassay kit (R&D Systems; Cat. No. KGE004; Lot. No. 240010). Eleven microliters or 16 μl of aqueous humor were diluted to 110 μl or 160 μl with the calibrator diluent solution provided with the kit. One hundred microliters of samples and of standards were load into a 96-well plate and recorded in a plate layout. Samples were treated following the assay procedure described in the kit. A microplate reader (GDV, Italy; model DV 990 B/V6) set at 450 nm (wavelength correction at 540 nm) was used for making the calibration and analyzing the samples.

[3] = tested on: protein concentration in the aqueous humor; assay: Protein measurement in aqueous humor; type: in vivo, Rabbit; settings: 0.5% topical
Procedure: as §1
For protein concentration determination in the aqueous humor we used the Protein Quantification Kit (Fluka; Cat. No. 77371; Lot. No. 1303129). Five microliters of aqueous humor were diluted to 100 μl with water. Twenty microliters of samples and of standards were load into a 96-well plate and recorded in a plate layout. Samples were treated following the assay procedure described in the kit. A microplate reader (GDV, Italy; model DV 990 B/V6) set at 670 nm was used for making the calibration and analyzing the samples.

leukocytes (PMN) = assay: Leukocytes (PMN) measurement in aqueous humor; type: in vivo, Rabbit; settings: 0.5% topical
Procedure: as §1
For the determination of the number of leukocytes we used a haemocytometer (Improved Neubauer Chamber; Brigth-line, Hausser Scientific) and a Polyvar 2 microscope (Reichert-Jung).

MPO = assay: Myeloperoxidase (MPO) activity in iris-ciliary body; type: in vivo, Rabbit
Procedure: 2.3.2.1 Phosphate Buffer (50 mM; pH=6)
3.9 g of NaH2PO4 2H2O were dissolved in a volumetric flask to 500 ml with water. The pH was adjusted to pH=6 with 3N NaOH.
0.5 g of hexa-decyl-trimethyl-ammonium bromide was dissolved in 100 ml phosphate buffer.
The solution was prepared freshly. Ten microliters of H2O2 (30 wt. %) were diluted to 1 ml with water (solution A). 7.5 mg o-dianisidine 2HCl were dissolved in 45 ml of phosphate buffer and 75 μl of solution A were added.
as §1
The activity of MPO was measured as previously described by Williams et al. The iris-ciliary bodies were carefully dried, weighed and immersed in 1 ml of hexa-decyl-trimethyl-ammonium bromide solution. Then, the samples were sonicated for 10 sec on ice by a ultrasound homogenizer (HD 2070, Bandelin electronic), freeze-thawed three times, sonicated for 10 sec and centrifuged at 14,000 g for 10 min to remove cellular debris. An aliquot of the supernatant (40-200 μl) was diluted to 3 ml with the o-dianisidine 2HCl/H2O2 solution. The change in absorbance at 460 nm was continuously monitored for 5 min by a spectrophotometer (UV/Vis Spectrometer Lambda EZ 201; Perkin Elmer). The slope of the line (Δ/min) was determined for each sample and used to calculate the number of units of MPO in the tissue as follows:
where ε=11.3 mM^−1. Values were expressed as units of MPO/g of tissue.

EoL-1 cells = assay: EoL-1 cell apoptosis (annexin V/PI flow cytometry); type: cell-based, human; settings: 10 μM co-incubated
Procedure: EoL-1 cells were grown in RPMI-1640+L-glutamine medium (containing 10% FBS) and kept at 37° C. in a 5% CO2 humidified atmosphere. Before each experiment, the cells were stabilized in serum-depleted media (0.1% FBS) for 24 h before treatments.

[4] = tested on: peripheral human blood eosinophils; assay: Spontaneous eosinophil apoptosis (annexin V/PI flow cytometry); settings: 10 μM co-incubated
Procedure: To assess glucocorticoid-induced apoptosis, cells were double-stained with annexin V-Fluos and propidium iodide (PI). Annexin V-Fluos was used according to the manufacturer's instructions.
The suspension was incubated at room temperature for 10 min and analyzed in the BD FACS Canto II flow cytometry system (Becton, Dickinson and Company, New Jersey, USA). Eosinophils and EoL-1 cells were gated on the basis of their forward and side light scatter, with cell debris excluded from analysis. Apoptotic cells were defined as annexin V^+/PI^− cells. A two-way dot plot was prepared to verify the percentage of apoptotic cells. Annexin V^−/PI^− cells were used as control and annexin V^+/PI^+ cells were considered necrotic.
All data are expressed as mean±S.E.M. for the number of experiments indicated. Statistical comparisons were made by ANOVA and post-hoc Newman-Keuls test with differences of P<0.05 considered significant.

CCOC(=O)O[C@]1(C(=O)OCCl)CC[C@H]2[C@@H]3CCC4=CC(=O)C=C[C@]4(C)[C@H]3[C@@H](O)C[C@@]21C [LE, loteprednol etabonate, reference compound]
Pupillary diameter T2: −5 min ([1]; 5 min before first paracentesis): 6.0 mm (3×) and 6.5 mm (5×) | Pupillary diameter T3: +115 min ([1]; 5 min before second paracentesis): 4.5 mm and 5.0 mm (2×) and 5.5 mm (2×) and 6.0 mm (3×) | Pupillary diameter Δ(T3 − T1) ([1]; +115 min minus −180 min): −1.5 mm (2×) and −1.0 mm (3×) and 0.0 mm and −0.5 mm (2×) | Pupillary diameter T1: −180 min ([1]; basal): 6.0 mm (3×) and 6.5 mm (5×) | Clinical Score −5 min ([2]; 5 min before first paracentesis, individual eye, scale 0-4): 0 | Clinical Score +115 min ([2]; 5 min before second paracentesis, individual eye, scale 0-4): 2 (2×) and 1 (6×) | Percentage of eyes with clinical score 1 ([2]; +115 min, 8 eyes): 75% | Percentage of eyes with clinical score 2 ([2]; +115 min, 8 eyes): 25% | Clinical Score −180 min ([2]; basal, individual eye, scale 0-4): 0 | Clinical score, statistical comparison with CTR ([2]; p<0.05): significant difference | Percentage of eyes with clinical score 0 ([2]; −5 min, 8 eyes): 100% | Percentage of eyes with clinical score 0 ([2]; −180 min, 8 eyes): 100% | PGE2 in aqueous humor at the second paracentesis, Mean (PGE2; group mean): 0.672 ng/mL | PGE2 in aqueous humor at the second paracentesis (PGE2; individual eye sample): ^2N/D and 0.23 ng/ml and 0.68 ng/ml and 1.10 ng/ml | PGE2 in aqueous humor, statistical comparison with CTR (PGE2; p<0.05): statistically significant versus CTR | Protein in aqueous humor at the second paracentesis, Mean ([3]; group mean): 33.905 mg/mL | Protein in aqueous humor at the second paracentesis ([3]; individual eye sample): 36.14 mg/mL and 39.10 mg/mL and 34.69 mg/mL and 26.10 mg/mL and 26.30 mg/mL and 28.16 mg/mL and 40.90 mg/mL and 39.85 mg/mL | PMN in aqueous humor at the second paracentesis, Mean (leukocytes (PMN); group mean): 28.333 number/μl | PMN in aqueous humor at the second paracentesis (leukocytes (PMN); individual eye sample): 40 number/μl (2×) and 20 number/μl (3×) and 30 number/μl | MPO activity in iris-ciliary body, statistical comparison with CTR (MPO; 0.5% topical, p<0.001): statistical significance | Mean MPO Unit/g (MPO activity in iris-ciliary body samples) (MPO; 0.5% treatment, group mean, after the second paracentesis): 0.661 Unit/g | MPO Unit/g (raw data of MPO activity in iris-ciliary body samples) (MPO; 0.5% treatment, individual eyes (DX/SX) of rabbits, samples collected after the second paracentesis): 0.30 Unit/g and 0.51 Unit/g and 0.81 Unit/g and 0.60 Unit/g and 0.73 Unit/g and 1.01 Unit/g

CC#C[C@]1(O)CC[C@H]2[C@@H]3CCC4=CC(=O)CCC4=C3[C@@H](c3ccc(N(C)C)cc3)C[C@@]21C [mifepristone, reference compound]
Effect on apoptosis induced by 5000 nM BOL-303242-X or dexamethasone in EoL-1 cells (EoL-1 cells): prevented apoptosis | Effect on apoptosis induced by 5000 nM BOL-303242-X or dexamethasone in human eosinophils [4]: prevented apoptosis
